Assay [1] has as its target cdk4/cyclin D1 (Homo sapiens, UniProt P11802). Put plainly: Cyclin-dependent kinase assay, cdk4/cyclin D1. The format is biochemical. Conditions: cyclin D1/cdk4; GST-pRb substrate, 10 µM ATP.
The subject of assay [2] is MDA-MB-435. Description: In vitro proliferation assay (MTT), MDA-MB-435. The format is cell-based, human. Conditions: value (SD, n) where given, read-out: MB-435 Breast (IC50 µM). The essentials:
(§1)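 Cells plated at 1000 to 2500 cells/well, allowed to attach overnight, then exposed to compounds for 3 days. Viable cells estimated by MTT dye, solubilized in DMSO, absorbance at 570 nm; IC50 taken from raw data.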

The subject of assay [3] is NCI-H460. Put plainly: In vitro proliferation assay (MTT), NCI-H460. The assay is classed as cell-based. Conditions: Homo sapiens, NCI-H460; MTT assay; value (SD, n) where given; read-out: H-460 Lung (IC50 µM). The method, then:
(§2) The proliferation of tumor cells can be measured using a tetrazolium salt-based assay known as the MTT (3-[4,5-Dimethylthiazol-2-yl]-2,5-diphenyltetrazolium bromide) assay. The proliferation test is performed essentially as described by Carmichael et al., Cancer Res. 47: 936-942, 1987. For the assay, the cell lines are plated onto 96 well plates at 1000 to 2500 cells/well (depending on the properties of the individual cell lines), left to attach and recover overnight. […] After 3 days, the cells are incubated with MTT dye (3-[4,5-Dimethylthiazol-2-yl]-2,5-diphenyltetrazolium bromide, Sigma # M5655, 10 mg/ml in Hank's Buffered Saline) to estimate the amount of live cells remaining vs. concentration for the test compounds. Specifically, MTT solution is added to a final concentration of […] and the plates incubated at 37 C for 2 to 4 hr. The MTT and culture medium is then removed from the cultures and 200 µl of DMSO is added to solubilize the dye from the cell layer. The absorbance at 570 nm is determined for each culture using a Spectramax plate reader (Molecular Devices).
(§3) IC50s were determined from the raw data from either the MTT or SRB assays.
All of the cell lines were obtained from American Type Tissue Collection, with the ATCC accession number in parentheticals. MCF-7 and MDA-MB-231 cells were grown in improved minimum essential medium (Biofluids) without phenol red, supplemented with 5 % fetal bovine serum, 0.01 mg/ml gentamicin and 3 mM L-glutamine. All of the other cell lines were grown in RPMI 1640 medium (Life Technologies) supplemented with 5 % fetal bovine serum, 0.01 mg/ml gentamicin and 3 mM L-glutamine TABLE 3
A general note: Tetrazolium dyes change colour on reduction, which living cells bring about.

The subject of assay [4] is PC-3. Put plainly: In vitro proliferation assay (MTT), PC-3. The format is cell-based, human. Conditions: value (SD, n) where given, read-out: PC-3 Prostate (IC50 µM). The essentials: as §1
In assay [5] the test system is Colo-205. Put plainly: In vitro proliferation assay (MTT), Colo-205. The following applies: Homo sapiens, COLO 205; MTT assay; value (SD, n) where given; read-out: Colo-205 Colon (IC50 µM). The assay is classed as cell-based. The procedure: as §2, §3
Assay [6] deals with cdk1/cyclin B (Homo sapiens, UniProt P06493). Put plainly: Cyclin-dependent kinase assay, cdk1/cyclin B. The following applies: CDK1 IC50, nM, Histone H1, 10 µM ATP.
Assay [7] addresses cdk2/cyclin E (Homo sapiens, UniProt P24941). Put plainly: Cyclin-dependent kinase assay, cdk2/cyclin E. The following applies: CDK2 IC50, nM, GST-pRb substrate, 10 µM ATP.
The mark [8] stands for this setting: Homo sapiens, MDA-MB-435, MTT assay.

Data on 13 compounds can be found in patent EP1377579B1 (Aventis Pharmaceuticals Inc., priority 2000, dated 2002).

Structures are written as SMILES. Where a name gives a salt, the structure may show the parent alone. Read-outs that look alike come from different tables or passages of the source.

cdk1/cyclin B, sequence (P06493 whole entry): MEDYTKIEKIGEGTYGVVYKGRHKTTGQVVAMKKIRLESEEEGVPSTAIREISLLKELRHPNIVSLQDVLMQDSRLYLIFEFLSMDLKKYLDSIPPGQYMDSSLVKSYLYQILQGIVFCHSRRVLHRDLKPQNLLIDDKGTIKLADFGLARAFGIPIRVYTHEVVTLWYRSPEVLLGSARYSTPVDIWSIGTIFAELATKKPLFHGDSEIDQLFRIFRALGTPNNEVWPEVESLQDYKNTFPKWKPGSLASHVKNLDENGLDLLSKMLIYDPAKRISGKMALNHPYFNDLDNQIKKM
cdk1/cyclin B, sequence (P14635 whole entry partner): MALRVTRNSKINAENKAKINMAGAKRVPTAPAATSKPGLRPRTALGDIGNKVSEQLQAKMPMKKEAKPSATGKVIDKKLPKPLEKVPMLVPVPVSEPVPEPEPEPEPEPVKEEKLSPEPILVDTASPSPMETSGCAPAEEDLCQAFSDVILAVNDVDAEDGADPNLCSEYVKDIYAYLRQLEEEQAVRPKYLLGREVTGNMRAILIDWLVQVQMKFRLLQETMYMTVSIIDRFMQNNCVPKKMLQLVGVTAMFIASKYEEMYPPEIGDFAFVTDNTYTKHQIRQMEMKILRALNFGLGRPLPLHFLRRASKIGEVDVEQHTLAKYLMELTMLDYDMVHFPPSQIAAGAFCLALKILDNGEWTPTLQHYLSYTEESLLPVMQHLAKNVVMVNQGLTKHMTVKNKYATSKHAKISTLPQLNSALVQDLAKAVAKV
cdk4/cyclin D1, sequence (P11802 whole entry): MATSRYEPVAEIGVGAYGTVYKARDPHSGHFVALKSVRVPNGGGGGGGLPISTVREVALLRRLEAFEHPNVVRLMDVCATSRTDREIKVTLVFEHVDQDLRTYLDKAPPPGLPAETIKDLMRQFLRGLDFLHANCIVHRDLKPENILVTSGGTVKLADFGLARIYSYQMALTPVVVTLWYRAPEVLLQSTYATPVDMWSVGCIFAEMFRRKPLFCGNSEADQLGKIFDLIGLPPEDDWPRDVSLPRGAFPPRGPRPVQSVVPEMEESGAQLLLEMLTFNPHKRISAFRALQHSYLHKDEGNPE
cdk4/cyclin D1, sequence (P24385 whole entry partner): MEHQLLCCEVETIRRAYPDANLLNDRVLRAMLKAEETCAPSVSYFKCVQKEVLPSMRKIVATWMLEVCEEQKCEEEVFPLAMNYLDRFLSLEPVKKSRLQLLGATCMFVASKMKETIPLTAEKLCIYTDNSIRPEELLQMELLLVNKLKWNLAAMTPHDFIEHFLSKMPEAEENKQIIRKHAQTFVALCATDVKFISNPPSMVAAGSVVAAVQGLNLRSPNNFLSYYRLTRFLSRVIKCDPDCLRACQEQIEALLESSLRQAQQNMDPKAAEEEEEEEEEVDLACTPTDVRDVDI

As usually defined, the IC50 is the point on the concentration scale where inhibition reaches its midpoint. As to `Cc1noc(C)c1S(=O)(=O)N1CCC(Nc2nc(N[C@H]3CC[C@H](N)CC3)nc3c2ncn3C2CCCC2)CC1` [compound 110, trans-N^2-(4-Amino-cyclohexyl)-9-cyclopentyl-N^6-[1-(3,5-dimethyl-isoxazole-4-sulfonyl)-piperidin-4-yl]-9H-purine-2,6-diamine dihydrochloride], the IC50 in assay [1] is 158 nM; in assay [2] (setting [8]), 0.44 µM; in assay [3], 0.65 µM; in assay [4] (Homo sapiens, PC-3, MTT assay), 0.76 µM; in assay [5], 0.25 µM; in assay [6], 27 nM. Further, the midpoint of inhibition in assay [7], the IC50, lay at 9 nM.

Regarding `N[C@H]1CC[C@H](Nc2nc(NC3CCN(S(=O)(=O)c4ccccc4)CC3)c3ncn(C4CCCC4)c3n2)CC1` [compound 105, trans-N^2-(4-Amino-cyclohexyl)-N^6-(1-benzenesulfonyl-piperidin-4-yl)-9-cyclopentyl-9H-purine-2,6-diamine dihydrochloride], the half-maximal inhibitory concentration (IC50) was found to be 69 nM in assay [1]; 0.18 µM in assay [2] (setting [8]); 0.29 µM in assay [3]; 0.5 µM in assay [4] (Homo sapiens, PC-3, MTT assay); 0.21 µM in assay [5]; 7 nM in assay [6]. The compound also registered an IC50 in assay [7] of 8 nM.

For `N[C@H]1CC[C@H](Nc2nc(NC3CCN(C(=O)c4cccc(Cl)c4)CC3)c3ncn(C4CCCC4)c3n2)CC1` [compound 6, trans-1-{4-[2-(4-Amino-cyclohexylamino)-9-cyclopentyl-9H-purin-6-ylamino]-piperidin-1-yl}-1-(3-chloro-phenyl)-methanone dihydrochloride], the half-inhibitory concentration (IC50) is 87 nM in assay [1]; 0.44 µM in assay [2] (MTT assay, dihydrochloride); 0.24 µM in assay [3]; 1.2 µM in assay [4] (MTT assay, dihydrochloride); < 0.02 µM in assay [5]; 160 nM in assay [6]. For the same compound, the IC50 in assay [7] was 201 nM.

On to `N[C@H]1CC[C@H](Nc2nc(NC3CCN(C(=O)COc4ccc(Cl)cc4)CC3)c3ncn(C4CCCC4)c3n2)CC1` [compound 31, trans-1-{4-[2-(4-Amino-cyclohexylamino)-9-cyclopentyl-9H-purin-6-ylamino]-piperidin-1-yl}-2-(4-chloro-phenoxy)-ethanone dihydrochloride], for which the 50% inhibitory concentration (IC50) is 2040 nM in assay [1]; 0.17 µM in assay [2] (setting [8]); 0.19 µM in assay [3]; 0.16 µM in assay [4] (Homo sapiens, PC-3, MTT assay); 0.04 µM in assay [5]; 105 nM in assay [6]. The IC50 in assay [7] turned out to be 5 nM.

With `COc1ccccc1C(=O)N1CCC(Nc2nc(N[C@H]3CC[C@H](N)CC3)nc3c2ncn3C2CCCC2)CC1` [compound 7, trans-1-{4-[2-(4-Amino-cyclohexylamino)-9-cyclopentyl-9H-purin-6-ylamino]-piperidin-1-yl}-1-(2-methoxy-phenyl)-methanone dihydrochloride], the IC50 in assay [1] is 96 nM; in assay [2] (setting [8]) it was 1.34 µM; in assay [3], 1.11 µM; in assay [4] (Homo sapiens, PC-3, MTT assay), 2.26 µM; in assay [5], < 0.02 µM; in assay [6], 399 nM. The IC50 in assay [7] came to 487 nM.

Consider `CC(CC(=O)N1CCC(Nc2nc(N[C@H]3CC[C@H](N)CC3)nc3c2ncn3C2CCCC2)CC1)CC(C)(C)C` (mixture of isomers) [compound 45, (±)-trans-1-{4-[2-(4-Amino-cyclohexylamino)-9-cyclopentyl-9H-purin-6-ylamino]-piperidin-1-yl}-3,5,5-trimethyl-hexan-1-one dihydrochloride], for which the IC50 in assay [1] was 485 nM; in assay [2] (setting [8]), 0.31 µM; in assay [3], 0.28 µM; in assay [4] (Homo sapiens, PC-3, MTT assay), 0.45 µM; in assay [5], < 0.02 µM; in assay [6], 76 nM. The compound further displayed an IC50 in assay [7] of 154 nM.

`N[C@H]1CC[C@H](Nc2nc(NC3CCN(C(=O)c4cnc5ccccc5n4)CC3)c3ncn(C4CCCC4)c3n2)CC1` [compound 4, trans-1-{4-[2-(4-Amino-cyclohexylamino)-9-cyclopentyl-9H-purin-6-ylamino]-piperidin-1-yl}-1-quinoxalin-2-yl-methanone dihydrochloride]: the IC50 in assay [1] is 641 nM; in assay [2] (setting [8]), 0.7 µM; in assay [3] it was 0.33 µM; in assay [4] (Homo sapiens, PC-3, MTT assay), 0.72 µM; in assay [5], 0.16 µM; in assay [6] it was 197 nM. In addition, 339 nM corresponded to half-maximal inhibition in assay [7] (IC50).

For the compound `N[C@H]1CC[C@H](Nc2nc(NC3CCN(C(=O)c4ccc(C(F)(F)F)cc4)CC3)c3ncn(C4CCCC4)c3n2)CC1` [compound 2, trans-1-{4-[2-(4-Amino-cyclohexylamino)-9-cyclopentyl-9H-purin-6-ylamino]-piperidin-1-yl}-1-(4-trifluoromethyl-phenyl)-methanone dihydrochloride], the IC50 in assay [1] is 427 nM; in assay [2] (setting [8]), 0.26 µM; in assay [3], 0.15 µM; in assay [4] (Homo sapiens, PC-3, MTT assay), 1.17 µM; in assay [5], < 0.02 µM; in assay [6], 48 nM. In assay [7], the IC50 was 92 nM.

Turning to `CC1(C)C2CCC1(CS(=O)(=O)N1CCC(Nc3nc(N[C@H]4CC[C@H](N)CC4)nc4c3ncn4C3CCCC3)CC1)C(=O)C2` (stereo partly drawn) [compound 107, trans-1-{4-[2-(4-Amino-cyclohexylamino)-9-cyclopentyl-9H-purin-6-ylamino]-piperidine-1-sulfonylmethyl}-7,7-dimethyl-bicyclo[2.2.1]heptan-2-one dihydrochloride], the IC50 was 10 nM in assay [1]; 0.11 µM in assay [2] (setting [8]); 0.29 µM in assay [3]; 0.41 µM in assay [4] (Homo sapiens, PC-3, MTT assay); 0.18 µM in assay [5]; 250 nM in assay [6]. In assay [7], this compound had an IC50 of 35 nM.

With `N[C@H]1CC[C@H](Nc2nc(NC3CCN(S(=O)(=O)c4ccc(Cl)cc4)CC3)c3ncn(C4CCCC4)c3n2)CC1` [compound 108, trans-N -(4-Amino-cyclohexyl)-9-cyclopentyl-N^6-[1-(4-chloro-benzenesulfonyl)-piperidin-4-yl]-9H-purine-2,6-diamine dihydrochloride], the IC50 in assay [1] was found to be 170 nM; in assay [2] (setting [8]), 0.14 µM; in assay [3], 0.29 µM; in assay [4] (Homo sapiens, PC-3, MTT assay), 0.43 µM; in assay [5], 0.18 µM; in assay [6], 7 nM. Also, the half-maximal inhibitory concentration (IC50) in assay [7] was found to be 10 nM.

For `COC(=O)c1ccc(C(=O)N2CCC(Nc3nc(N[C@H]4CC[C@H](N)CC4)nc4c3ncn4C3CCCC3)CC2)cc1` [compound 11, trans-4-(1-{4-[2-(4-Amino-cyclohexylamino)-9-cyclopentyl-9H-purin-6-ylamino]-piperidin-1-yl}-methanoyl)-benzoic acid methyl ester dihydrochloride], the half-inhibitory concentration (IC50) in assay [1] turned out to be 620 nM; in assay [2] (setting [8]) it was 0.57 µM; in assay [3], 0.39 µM; in assay [4] (Homo sapiens, PC-3, MTT assay), 0.72 µM; in assay [5] it was 0.27 µM; in assay [6] it was 46 nM. Half-maximal inhibition in assay [7] (IC50) required 78 nM.

`CCC(C(=O)N1CCC(Nc2nc(N[C@H]3CC[C@H](N)CC3)nc3c2ncn3C2CCCC2)CC1)c1ccccc1` (relative stereo) [compound 41, trans-1-{4-[2-(4-Amino-cyclohexylamino)-9-cyclopentyl-9H-purin-6-ylamino]-piperidin-1-yl}-2-phenyl-butan-1-one dihydrochloride]: the IC50 in assay [1] was 404 nM; in assay [2] (setting [8]), 0.3 µM; in assay [3] it was 0.31 µM; in assay [4] (Homo sapiens, PC-3, MTT assay) it was 0.38 µM; in assay [5] it was 0.11 µM; in assay [6], 59 nM. The same compound had an IC50 in assay [7] of 93 nM.

`N[C@H]1CC[C@H](Nc2nc(NC3CCN(C(=O)c4ccc(F)cc4)CC3)c3ncn(C4CCCC4)c3n2)CC1` [compound 1, trans-1-{4-[2-(4-Amino-cyclohexylamino)-9-cyclopentyl-9H-purin-6-ylamino]-piperidin-1-yl}-1-(4-fluoro-phenyl)-methanone dihydrochloride]: the IC50 is 555 nM in assay [1]; 0.69 µM in assay [2] (setting [8]); > 50 µM in assay [3]; 0.78 µM in assay [4] (Homo sapiens, PC-3, MTT assay); > 50 µM in assay [5]; 64 nM in assay [6]. In assay [7], this compound registered an IC50 of 98 nM.
